The source made the active and inactive calls.
Key:
[1] = molecular target: T1, Voltage-gated N-type calcium channel alpha-1B subunit/Amyloid beta A4 precursor protein-binding family A member 1 (Homo sapiens, UniProt Q00975+Q02410); format: protein assay
[2] = molecular target: Induced myeloid leukemia cell differentiation protein Mcl-1 (Homo sapiens, UniProt Q07820); format: functional
[3] = molecular target: T2, Carboxy-terminal domain RNA polymerase II polypeptide A small phosphatase 1 (Homo sapiens, UniProt Q9GZU7); assay: inhibitors of CTDSP1, concentration-response testing, biochemical assay, absorbance-based, actives from ultra-high-throughput screening (AID 540297); format: functional
T2 sequence (Q9GZU7 whole entry): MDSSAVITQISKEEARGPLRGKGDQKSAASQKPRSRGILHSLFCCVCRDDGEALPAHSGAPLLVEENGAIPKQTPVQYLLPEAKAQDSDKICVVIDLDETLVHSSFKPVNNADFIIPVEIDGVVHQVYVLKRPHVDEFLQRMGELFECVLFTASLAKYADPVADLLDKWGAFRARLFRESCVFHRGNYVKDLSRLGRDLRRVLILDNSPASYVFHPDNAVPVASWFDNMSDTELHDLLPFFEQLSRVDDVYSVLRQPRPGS

[4] = molecular target: T1, Voltage-gated N-type calcium channel alpha-1B subunit/Amyloid beta A4 precursor protein-binding family A member 1; format: protein assay; remark: listed apart in the source
Ephrin type-A receptor 4 = Ephrin type-A receptor 4 (Mus musculus, UniProt Q03137); assay: inhibitors of EphA4 binding to KYL peptide, primary screen, biochemical, colorimetric, mouse EphA4 (AID 689); format: functional
[5] = molecular target: Beta-2 adrenergic receptor (Homo sapiens, UniProt P07550); assay: Dose response for HTS for Beta-2AR agonists via FAP method from Powderset3.; format: functional
[6] = molecular target: 26S proteasome non-ATPase regulatory subunit 14 (Homo sapiens, UniProt O00487); assay: inhibition of proteasome subunit RPN11 – biochemical, fluorescence polarization, uHTS hits, confirmation (AID 602368); format: functional
[7] = molecular target: T3, Small ubiquitin-related modifier 1 (Homo sapiens, UniProt P63165); assay: inhibitors of SUMO1 partner interactions, dose response, biochemical, FRET (AID 624383); format: functional; settings: read-out: IC50_Mean
[8] = molecular target: E3 ubiquitin-protein ligase XIAP (Homo sapiens, UniProt P98170); assay: Counter Screen using XIAP-Bir3 for Chemical Antagonists of Bir1/2 domains of IAP-family anti-apoptotic proteins. [Related pubchem assays (depositor defined):AID1018, AID1449, AID1514, AID1638, AID1749, AID1750, AID488957, AID488963]
[9] = molecular target: RNA-editing ligase 1, mitochondrial (Trypanosoma brucei brucei, UniProt P86926); assay: TbREL1 ligase inhibitors, dose response, biochemical, fluorescence, Trypanosoma brucei (AID 1117295); format: functional
Prothrombin = Prothrombin (Bos taurus, UniProt P00735); assay: thrombin inhibition, dose response, biochemical, fluorescence polarization, uHTS hits (AID 602369); format: functional
[10] = molecular target: 72 kDa type IV collagenase (Homo sapiens, UniProt P08253); assay: Dose Response validation of uHTS RPN11 inhibitor hits using a MMP-2 Fluorescence assay.; format: functional
Albumin = Albumin (Bos taurus, UniProt P02769); assay: Counterscreen for inhibitors of T-cell receptor (TCR)-CD3 interaction: Fluorescence-based biochemical high throughput dose response assay to identify inhibitors of T-cell receptor (TCR)-CD3 interaction using a TAMRA-labeled BSA probe.; format: functional
[11] = molecular target: T3, Small ubiquitin-related modifier 1; assay: inhibitors of SUMO1 peptide binding, dose response, biochemical, fluorescence polarization, uHTS hits (AID 624382); format: functional; settings: read-out: IC50_Mean
Beta-lactamase [12] = molecular target: T4, Beta-lactamase (Salmonella choleraesuis (strain SC-B67), UniProt Q5J463)
Beta-lactamase [13] = molecular target: T5, Beta-lactamase (Pseudomonas aeruginosa, UniProt Q79MP6)
[14] = molecular target: T6, Probable nicotinate-nucleotide adenylyltransferase (Staphylococcus aureus (strain N315), UniProt P65502); format: functional, Staphylococcus aureus subsp. aureus N315; settings: read-out: IC50_Mean;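 for IC50 Mean: confirmatory dose-response retesting of NadD inhibitor hits first found in an ultra-high-throughput screen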
[15] = molecular target: T6, Probable nicotinate-nucleotide adenylyltransferase; format: functional, Staphylococcus aureus subsp. aureus N315
Beta-galactosidase = Beta-galactosidase (Escherichia coli, UniProt Q8VNN2); assay: Dose response counterscreen for EBI2 assay utilizing the enzyme, b-galactosidase.; format: functional
[16] = molecular target: T7, Trace amine-associated receptor 1 (Homo sapiens, UniProt Q96RJ0); assay: Counterscreen for agonists of the human trace amine associated receptor 1 (hTAAR1): Fluorescence-based cell-based high throughput dose response assay to identify hTAAR1 agonist that also desensitize TAAR1 receptor response.; format: functional
[17] = molecular target: T7, Trace amine-associated receptor 1; assay: Fluorescence-based cell-based high throughput dose response assay to identify agonists of the human trace amine associated receptor 1 (TAAR1).; format: functional
cells [18] = format: functional, cell-based
cells [19] = format: functional, cell-based; remark: listed apart in the source
P388 = assay: cells; format: functional; settings: Mus musculus
SN12K1 = assay: cells; format: functional; settings: Homo sapiens
[20] = HeLa 2N DNA content increase, dose response, cell-based, IC50 (AID 1117349); format: functional
Paired box protein Pax-8 = Paired box protein Pax-8 (Homo sapiens, UniProt Q06710); assay: inhibitors of PAX8-driven TPO luciferase reporter, dose response, RMG-I cells, cherry-pick (AID 687027); format: functional, cell-based;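 note: luciferase reporter driven by Pax8 target thyroperoxidase promoter measured by SteadyGlo luminescence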
Cytochrome P450 2D6 = Cytochrome P450 2D6 (Homo sapiens, UniProt P10635);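 note: CYP2D6 member of a cytochrome P450 panel assay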
[21] = Luminescence-based dose response cell-based high throughput screening assay for cytotoxic compounds using the IEC-6 intestinal epithelial cell line. [Related pubchem assays: 1858 (Summary AID.), 1825 (Counterscreen.), 1907 (Confirmation screen.)]; format: functional
Cytochrome P450 2C9 = Cytochrome P450 2C9 (Homo sapiens, UniProt P11712)
cells [22] = format: functional, cell-based; remark: listed apart in the source
P388/ADR = assay: cells; format: functional; settings: Mus musculus
[23] = molecular target: T8, Nuclear receptor subfamily 0 group B member 1 (Homo sapiens, UniProt P51843); format: functional, cell-based;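 note: HEK293T cells transfected with SF-1 and DAX-1 plus StAR promoter luciferase reporter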
T8 sequence (P51843 whole entry): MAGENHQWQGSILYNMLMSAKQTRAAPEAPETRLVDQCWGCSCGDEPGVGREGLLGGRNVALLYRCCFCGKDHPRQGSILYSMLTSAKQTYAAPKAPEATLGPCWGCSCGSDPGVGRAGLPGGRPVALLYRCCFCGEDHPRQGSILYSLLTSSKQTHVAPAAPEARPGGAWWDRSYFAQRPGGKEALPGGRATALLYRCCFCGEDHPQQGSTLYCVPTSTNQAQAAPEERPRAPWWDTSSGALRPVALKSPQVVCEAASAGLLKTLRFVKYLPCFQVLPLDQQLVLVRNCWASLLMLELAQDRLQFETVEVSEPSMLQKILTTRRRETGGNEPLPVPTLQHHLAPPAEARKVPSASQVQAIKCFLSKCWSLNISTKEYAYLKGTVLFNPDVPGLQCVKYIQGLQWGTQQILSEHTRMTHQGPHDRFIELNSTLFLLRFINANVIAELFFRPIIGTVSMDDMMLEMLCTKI

[24] = cytotoxicity in HEK-293T cells, dose response, cytotoxicity control for TCR NF-kB inhibitor project, luminescence, T-cell screen hits (AID 489026); format: functional, cell-based;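 note: cells exposed to compound about 14 hours before the viability readout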
Beta-lactamase [25] = molecular target: T5, Beta-lactamase; assay: […] counterscreen for selective VIM-2 inhibitors: dose response biochemical high throughput screening assay to identify inhibitors of IMP-1 metallo-beta-lactamase.
Beta-lactamase [26] = molecular target: T5, Beta-lactamase; assay: IMP-1 metallo-beta-lactamase inhibitors, dose response, selectivity assay for VIM-2 inhibitor project, biochemical, epi-absorbance (AID 1920)
Beta-lactamase [27] = molecular target: T4, Beta-lactamase; assay: Epi-absorbance-based counterscreen for selective VIM-2 inhibitors: dose response biochemical high throughput screening assay to identify inhibitors of TEM-1 serine-beta-lactamase.
[28] = molecular target: T9, Tyrosine-protein phosphatase non-receptor type 22 (Homo sapiens, UniProt Q9Y2R2); assay: PTPN22 phosphatase inhibition, dose response, selectivity assay for STEP inhibitor project, biochemical (AID 624241); format: functional
T9 sequence (Q9Y2R2 whole entry): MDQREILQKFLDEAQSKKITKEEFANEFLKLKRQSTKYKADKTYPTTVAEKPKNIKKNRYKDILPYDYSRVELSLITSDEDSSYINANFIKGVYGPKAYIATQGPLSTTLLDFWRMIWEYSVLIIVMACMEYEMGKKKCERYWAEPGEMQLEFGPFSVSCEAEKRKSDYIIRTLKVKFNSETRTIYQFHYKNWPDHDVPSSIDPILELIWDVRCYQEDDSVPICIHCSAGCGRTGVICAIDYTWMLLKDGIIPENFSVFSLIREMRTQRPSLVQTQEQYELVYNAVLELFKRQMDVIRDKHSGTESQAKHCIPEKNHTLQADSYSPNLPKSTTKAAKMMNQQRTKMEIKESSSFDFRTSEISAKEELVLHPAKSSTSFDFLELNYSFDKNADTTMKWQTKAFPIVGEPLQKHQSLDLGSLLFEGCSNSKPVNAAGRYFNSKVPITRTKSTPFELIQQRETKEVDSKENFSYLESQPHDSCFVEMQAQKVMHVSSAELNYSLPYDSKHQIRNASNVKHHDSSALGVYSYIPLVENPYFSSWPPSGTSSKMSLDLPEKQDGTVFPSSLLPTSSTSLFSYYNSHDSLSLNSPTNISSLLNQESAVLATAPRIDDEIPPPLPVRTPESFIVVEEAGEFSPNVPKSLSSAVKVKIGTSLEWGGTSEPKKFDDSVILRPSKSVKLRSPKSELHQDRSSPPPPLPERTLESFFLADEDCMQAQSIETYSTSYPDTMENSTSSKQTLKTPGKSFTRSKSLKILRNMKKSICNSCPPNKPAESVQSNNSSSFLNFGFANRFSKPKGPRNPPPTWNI

[29] = molecular target: Dual specificity protein phosphatase 3 (Homo sapiens, UniProt P51452); assay: VHR phosphatase inhibition, dose response, selectivity assay for STEP inhibitor project, biochemical (AID 602374); format: functional; settings: read-out: IC50_Mean
[30] = molecular target: Tyrosine-protein phosphatase non-receptor type 11 (Homo sapiens, UniProt Q06124); assay: SHP2 phosphatase inhibition, dose response, selectivity assay for STEP inhibitor project, biochemical (AID 602367); format: functional; settings: read-out: IC50_Mean
[31] = molecular target: Tyrosine-protein phosphatase non-receptor type 5 (Homo sapiens, UniProt P54829); assay: STEP phosphatase inhibitors, confirmation, biochemical, fluorescence intensity, uHTS hits (AID 602372); format: functional; settings: read-out: IC50_Mean
[32] = molecular target: T10, Low molecular weight phosphotyrosine protein phosphatase (Homo sapiens, UniProt P24666); format: functional; settings: read-out: IC50_Mean
[33] = molecular target: T10, Low molecular weight phosphotyrosine protein phosphatase; format: functional; settings: read-out: IC50_Mean; remark: listed apart in the source
[34] = molecular target: T9, Tyrosine-protein phosphatase non-receptor type 22; assay: LYP phosphatase inhibition for selectivity, dose response, selectivity assay for LMPTP inhibitor project, biochemical, fluorescence, LYP catalytic domain (AID 652006); format: functional; settings: read-out: IC50_Mean

Sequence of Induced myeloid leukemia cell differentiation protein Mcl-1 (Q07820 whole entry, the tested form may be a part): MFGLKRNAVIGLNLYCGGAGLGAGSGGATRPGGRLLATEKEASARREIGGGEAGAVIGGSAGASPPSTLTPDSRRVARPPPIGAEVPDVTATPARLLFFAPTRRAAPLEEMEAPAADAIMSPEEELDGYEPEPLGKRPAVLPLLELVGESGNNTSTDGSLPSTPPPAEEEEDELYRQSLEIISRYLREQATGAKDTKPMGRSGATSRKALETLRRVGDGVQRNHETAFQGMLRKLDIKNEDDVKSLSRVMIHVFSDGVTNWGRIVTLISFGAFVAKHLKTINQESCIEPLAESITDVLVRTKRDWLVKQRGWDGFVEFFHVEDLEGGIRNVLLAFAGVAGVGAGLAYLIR
T5 sequence (Q79MP6 whole entry): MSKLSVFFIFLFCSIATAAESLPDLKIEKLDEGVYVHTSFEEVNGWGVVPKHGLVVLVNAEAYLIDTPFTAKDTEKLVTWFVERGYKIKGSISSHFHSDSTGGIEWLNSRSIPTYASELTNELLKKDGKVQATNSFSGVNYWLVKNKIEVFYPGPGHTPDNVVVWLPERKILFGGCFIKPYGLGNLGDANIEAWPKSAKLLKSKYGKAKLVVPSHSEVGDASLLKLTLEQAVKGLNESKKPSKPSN
T3 sequence (P63165 whole entry): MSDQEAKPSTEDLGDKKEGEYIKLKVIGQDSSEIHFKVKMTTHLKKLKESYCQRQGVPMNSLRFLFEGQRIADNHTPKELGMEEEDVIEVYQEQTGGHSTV
T7 sequence (Q96RJ0 whole entry): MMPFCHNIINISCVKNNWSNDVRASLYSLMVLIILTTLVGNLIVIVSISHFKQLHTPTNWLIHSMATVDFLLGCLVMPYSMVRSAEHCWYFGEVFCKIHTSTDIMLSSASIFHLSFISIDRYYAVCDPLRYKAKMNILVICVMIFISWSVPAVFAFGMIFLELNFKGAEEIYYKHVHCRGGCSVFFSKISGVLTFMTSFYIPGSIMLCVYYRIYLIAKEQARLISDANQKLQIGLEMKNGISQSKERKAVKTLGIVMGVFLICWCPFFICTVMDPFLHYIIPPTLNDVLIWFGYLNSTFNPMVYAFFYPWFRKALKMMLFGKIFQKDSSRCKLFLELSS
T10 sequence (P24666 whole entry): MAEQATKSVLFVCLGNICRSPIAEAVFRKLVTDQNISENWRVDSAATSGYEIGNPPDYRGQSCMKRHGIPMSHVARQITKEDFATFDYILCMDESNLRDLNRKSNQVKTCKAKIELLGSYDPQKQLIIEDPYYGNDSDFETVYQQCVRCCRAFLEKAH
T1 sequence (Q00975 whole entry): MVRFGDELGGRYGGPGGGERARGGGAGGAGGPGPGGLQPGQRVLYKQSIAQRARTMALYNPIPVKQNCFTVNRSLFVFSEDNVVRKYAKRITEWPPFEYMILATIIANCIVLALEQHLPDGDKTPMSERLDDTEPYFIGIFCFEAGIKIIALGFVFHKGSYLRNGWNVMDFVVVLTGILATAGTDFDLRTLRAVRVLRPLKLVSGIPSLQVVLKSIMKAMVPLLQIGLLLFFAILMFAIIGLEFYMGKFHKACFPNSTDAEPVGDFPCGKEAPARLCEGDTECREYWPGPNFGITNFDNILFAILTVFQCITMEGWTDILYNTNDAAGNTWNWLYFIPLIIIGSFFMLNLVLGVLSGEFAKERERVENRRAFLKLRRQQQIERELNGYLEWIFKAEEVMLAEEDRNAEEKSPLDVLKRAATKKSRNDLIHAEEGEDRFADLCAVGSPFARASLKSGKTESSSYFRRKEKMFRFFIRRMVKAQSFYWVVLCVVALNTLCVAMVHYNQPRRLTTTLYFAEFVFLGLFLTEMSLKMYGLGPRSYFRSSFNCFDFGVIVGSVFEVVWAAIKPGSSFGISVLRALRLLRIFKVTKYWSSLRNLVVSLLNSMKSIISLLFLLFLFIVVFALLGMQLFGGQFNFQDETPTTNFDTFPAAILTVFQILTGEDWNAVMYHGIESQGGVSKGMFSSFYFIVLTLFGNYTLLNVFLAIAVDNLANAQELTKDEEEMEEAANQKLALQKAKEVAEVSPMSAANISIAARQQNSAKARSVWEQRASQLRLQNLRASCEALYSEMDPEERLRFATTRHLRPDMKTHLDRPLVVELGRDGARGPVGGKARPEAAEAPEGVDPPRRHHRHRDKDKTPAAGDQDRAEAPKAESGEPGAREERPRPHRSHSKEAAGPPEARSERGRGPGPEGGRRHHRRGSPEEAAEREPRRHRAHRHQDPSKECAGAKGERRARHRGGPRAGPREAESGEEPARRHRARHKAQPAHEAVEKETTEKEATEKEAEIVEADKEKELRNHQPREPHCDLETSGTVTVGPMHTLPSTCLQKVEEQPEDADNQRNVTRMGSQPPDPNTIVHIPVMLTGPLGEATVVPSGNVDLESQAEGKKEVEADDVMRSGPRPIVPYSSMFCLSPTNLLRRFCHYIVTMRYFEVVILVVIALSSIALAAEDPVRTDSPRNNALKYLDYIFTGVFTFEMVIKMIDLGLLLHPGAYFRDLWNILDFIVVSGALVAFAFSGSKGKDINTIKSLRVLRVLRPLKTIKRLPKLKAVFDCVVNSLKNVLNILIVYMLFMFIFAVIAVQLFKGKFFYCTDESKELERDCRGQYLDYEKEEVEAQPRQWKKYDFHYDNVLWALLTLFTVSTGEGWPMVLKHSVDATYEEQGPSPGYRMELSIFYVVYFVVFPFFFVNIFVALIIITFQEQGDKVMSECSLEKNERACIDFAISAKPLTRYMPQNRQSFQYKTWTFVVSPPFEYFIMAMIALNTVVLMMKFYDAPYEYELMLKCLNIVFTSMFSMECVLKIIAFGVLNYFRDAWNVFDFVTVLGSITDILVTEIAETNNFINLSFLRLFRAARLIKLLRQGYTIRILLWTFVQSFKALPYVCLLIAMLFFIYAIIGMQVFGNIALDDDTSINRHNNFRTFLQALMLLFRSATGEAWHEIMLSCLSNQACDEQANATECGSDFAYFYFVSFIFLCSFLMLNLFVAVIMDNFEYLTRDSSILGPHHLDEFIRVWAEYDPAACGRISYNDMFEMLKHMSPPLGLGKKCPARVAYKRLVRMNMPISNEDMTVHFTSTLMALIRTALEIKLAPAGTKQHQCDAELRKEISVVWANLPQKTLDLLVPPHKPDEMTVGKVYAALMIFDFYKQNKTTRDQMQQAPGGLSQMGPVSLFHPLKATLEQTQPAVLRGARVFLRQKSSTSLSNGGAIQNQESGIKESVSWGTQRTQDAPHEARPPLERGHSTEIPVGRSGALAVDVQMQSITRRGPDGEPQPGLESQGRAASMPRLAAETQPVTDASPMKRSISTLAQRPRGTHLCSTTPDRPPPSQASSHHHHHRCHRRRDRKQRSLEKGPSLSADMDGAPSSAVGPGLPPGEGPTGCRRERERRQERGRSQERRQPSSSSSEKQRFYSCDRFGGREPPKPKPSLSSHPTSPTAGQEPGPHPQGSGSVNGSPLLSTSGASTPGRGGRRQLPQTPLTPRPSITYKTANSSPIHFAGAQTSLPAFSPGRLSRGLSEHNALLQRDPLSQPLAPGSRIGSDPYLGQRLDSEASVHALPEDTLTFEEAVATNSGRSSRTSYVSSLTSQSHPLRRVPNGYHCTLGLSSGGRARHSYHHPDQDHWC
T1 sequence (Q02410 whole entry): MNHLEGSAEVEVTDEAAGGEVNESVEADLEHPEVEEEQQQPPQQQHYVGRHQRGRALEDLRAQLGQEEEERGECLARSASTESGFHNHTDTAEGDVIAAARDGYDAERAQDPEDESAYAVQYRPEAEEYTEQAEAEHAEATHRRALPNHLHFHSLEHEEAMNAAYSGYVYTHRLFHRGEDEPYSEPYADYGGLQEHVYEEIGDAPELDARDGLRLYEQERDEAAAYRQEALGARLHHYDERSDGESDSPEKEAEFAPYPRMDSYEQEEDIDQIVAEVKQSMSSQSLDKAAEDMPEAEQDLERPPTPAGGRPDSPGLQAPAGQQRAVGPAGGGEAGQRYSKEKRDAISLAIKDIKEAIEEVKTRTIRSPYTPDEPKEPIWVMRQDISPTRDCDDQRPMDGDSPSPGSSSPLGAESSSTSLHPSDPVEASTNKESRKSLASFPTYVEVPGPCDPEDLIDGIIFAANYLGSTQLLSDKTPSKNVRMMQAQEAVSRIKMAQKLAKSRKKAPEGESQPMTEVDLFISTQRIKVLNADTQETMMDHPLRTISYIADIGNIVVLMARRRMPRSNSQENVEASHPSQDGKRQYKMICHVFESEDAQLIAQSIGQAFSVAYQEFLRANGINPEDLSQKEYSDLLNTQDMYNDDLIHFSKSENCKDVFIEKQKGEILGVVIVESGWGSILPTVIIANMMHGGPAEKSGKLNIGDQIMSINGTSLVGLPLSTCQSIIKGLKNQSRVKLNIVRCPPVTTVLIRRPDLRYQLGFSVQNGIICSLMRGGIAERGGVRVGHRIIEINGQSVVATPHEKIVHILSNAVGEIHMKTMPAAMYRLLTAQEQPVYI
T4 sequence (Q5J463 whole entry): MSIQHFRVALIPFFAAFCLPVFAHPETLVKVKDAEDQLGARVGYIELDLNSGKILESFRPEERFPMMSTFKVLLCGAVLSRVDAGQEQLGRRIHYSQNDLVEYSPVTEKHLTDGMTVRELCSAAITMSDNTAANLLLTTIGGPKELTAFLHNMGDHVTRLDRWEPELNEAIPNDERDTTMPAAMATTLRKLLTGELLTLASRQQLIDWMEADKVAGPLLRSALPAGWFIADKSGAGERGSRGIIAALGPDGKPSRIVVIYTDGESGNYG
T6 sequence (P65502 whole entry): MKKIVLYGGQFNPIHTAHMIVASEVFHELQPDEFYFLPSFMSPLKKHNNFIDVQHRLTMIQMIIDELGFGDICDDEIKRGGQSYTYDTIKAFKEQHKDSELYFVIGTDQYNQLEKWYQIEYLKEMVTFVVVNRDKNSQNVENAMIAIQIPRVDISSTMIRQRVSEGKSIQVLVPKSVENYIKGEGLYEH

CSc1nc(SCCO)c2sc3nc(-c4ccco4)c4c(c3c2n1)CC(C)(C)OC4
IC50 [1]: > 56.8 µM (not active)
IC50 [2]: 1.54 µM (active)
IC50 [3]: 3.01 µM (active)
IC50 [4]: 14.3 µM (active)
IC50 (Ephrin type-A receptor 4): 6.73 µM (active)
EC50 [5]: 1.81 µM (active)

NS(=O)(=O)c1ccc(NC(=O)c2cccc(N3C(=O)c4ccccc4C3=O)c2)cc1
IC50 [6]: 40.2 µM (active)
IC50 [7]: 14.4 µM (active)
IC50 [8]: > 20 µM (inactive)
IC50 [9]: 30.8 µM (inactive)
IC50 (Prothrombin): > 100 µM (inactive)
IC50 [10]: > 100 µM (inactive)
IC50 (Albumin): > 94.1 µM (inactive)
IC50 [11]: > 66.6 µM (inactive)

Cn1cc(/C=C(\C(=O)O)C(C(=O)O)=C2CCCCC2)c2ccccc21
IC50 (Beta-lactamase [12]): > 59.6 µM (inactive)
IC50 (Beta-lactamase [13]): > 59.6 µM (inactive)

COc1ccc(/C=C2\SC(=O)N(CCC(=O)Nc3ccc(S(=O)(=O)Nc4nccs4)cc3)C2=O)cc1
IC50 [14]: 73.1 µM (active)
IC50 [15]: 15.2 µM (active)
IC50 [2]: 3.11 µM (active)

CCN1CCN(C(=O)/C=C/c2ccc(C)cc2)CC1
IC50 (Beta-galactosidase): > 80 µM (inactive)

O=C(N[C@@H](Cc1cccnc1)C(=O)N1CCC[C@H]1C(=O)NCCc1ccccc1Cl)c1ccc(Cl)cc1Cl
IC50 [16]: 2.94 µM (active)
EC50 [17]: 4.03 µM (active)
IC50 (cells [18]): > 29.9 µM (inactive)
EC50 (cells [19]): > 29.9 µM (inactive)

COc1cc2c(c(OC)c1OC)-c1ccc(OC)c(=O)cc1[C@@H](NC(C)=O)CC2 [COLCHICINE]
GI50 (P388): 0.0625 µM (active)
GI50 (SN12K1): < 0.0625 µM (active)
IC50 [20]: 0.0017 µM (active)
AC50 (Paired box protein Pax-8): < 0.26 µM (active)
AC50 (Cytochrome P450 2D6): 0.794 µM (active)
IC50 [21]: 0.0628 µM (active)
AC50 (Cytochrome P450 2C9): 3.16 µM (active)
IC50 (cells [22]): > 67.6 µM (inactive)
GI50 (P388/ADR): 1.36 µM (inactive)
IC50 [23]: > 67.6 µM (inactive)
IC50 [24]: > 80 µM (inactive)

Sc1nnc(-c2ccc3ccccc3n2)n1-c1ccc2c(c1)OCCO2
IC50 (Beta-lactamase [25]): > 59.6 µM (inactive)
IC50 (Beta-lactamase [26]): > 59.6 µM (inactive)
IC50 (Beta-lactamase [27]): > 59.6 µM (inactive)

O=C(O)CC/C(=N\Nc1ccc(S(=O)(=O)N2CCCC2)cc1[N+](=O)[O-])c1cccs1
IC50 [28]: 34.5 µM (inactive)
IC50 [29]: 15.6 µM (active)
IC50 [30]: 14.5 µM (active)
IC50 [31]: 19 µM (active)
IC50 [3]: 15.5 µM (active)

COc1ccc(-c2ccc(/C=N/NC(=O)c3cccnc3)o2)c([N+](=O)[O-])c1
IC50 [32]: > 80 µM (inactive)
IC50 [33]: 12 µM (active)
IC50 [34]: 38.5 µM (inactive)
IC50 [2]: 3.42 µM (active)

Reference: ChEMBL document CHEMBL1201862, “PubChem BioAssay data set” (2004)
